# Measurements: patent US6255323A, “Cyanoguanidine compounds” (Shionogi Bioresearch Corp., priority 2000, dated 2001)
# Tests used:
# [1] = test system: Non-Hodgkin's B cell lymphoma (RL) tumor; experiment: RL human tumor xenograft regression assay; format: in vivo, human tumor in female NIH Swiss nude mice; settings: for gross toxicity: 2780 75, 2889 90, 2897 75, 2900 60, 2727 60 mg/kg (2727: reduced to once per day); for tumor regression: within the first two weeks of dosing, IV morning + IP afternoon, 2780 75, 2889 90, 2897 75, 2900 60, 2727 60 mg/kg; for average tumor volume, % of tumor volume obtained in the control: Day 21, 75 mg/kg
# Experimental: The antitumor activity of a cyanoguanidine compound of this invention can also be evaluated by in vivo testing, e.g., human tumor xenograft regression assays. Animals bearing established tumors are treated with a test compound for a three-week period. The growth of the tumors and the general health of the animal are monitored during the three-week treatment and for two more weeks after treatment to determine if tumor regrowth occurs. See Example 150 below.
# (§1) From the in vitro results obtained, cyanoguanidine compounds were selected for human tumor xenograft regression assays. Animals bearing established tumors (RL) were treated with a test compound for a three-week period. The growth of the tumors and the general health of the animals were monitored during the treatment and for an additional two weeks after dosing had been terminated to determine if tumor regrowth took place.
# (§2) Non-Hodgkin's B cell lymphoma (RL) tumor cells, which were adapted to grow as solid tumors, were implanted by an intradermal injection of a tumor cell suspension (30×10^6 cells in 0. 1 mL media) in the flanks of female NIH Swiss nude mice (Taconic Labs). Each mouse was implanted with one tumor and 6-8 mice per group were used.
# (§3) Dosing was initiated one week after implantation (Day 1), when tumors reached approximately 50 to 100 mm^3 in volume, with a test compound or vehicle five times per week for three weeks either intravenously (IV) or intraperitoneally (IP). Cyclophosphamide (CTX, Sigma) was used as a standard in the assays. Compounds were first dissolved in DMSO (Sigma) and formulated with 20% Cremophor RH40 (BASF) to a final concentration of 10% DMSO/18% Cremophor. The formulated solution was made fresh daily.
# (§4) Tumors, assumed to be hemi-ellipsoid in shape, were measured with calipers in three dimensions. Tumor volumes were calculated using the equation:
# (§5) where L=length, W=width, and H=height of the tumor. Animals were weighed and their general health was monitored during the course of the assay. When tumors became necrotic or if animals became moribund, the animals were euthanized by CO2 asphyxiation. Student's t test was used to determine if there was a significant difference between the data obtained in the compound treated group and the vehicle treated group.
# In a preliminary RL tumor growth regression assay, eight compounds were administered twice a day (via IV route in the morning and IP route in the afternoon) for five days per week for a three-week period. […] For comparison, cyclophosphamide, reduced the average tumor volume to 2% of control by Day 18. […] Compounds SBR-11-2899 (75 mg/kg), SBR-11-2750 (75 mg/kg), and SBR-11-2749 (75 mg/kg) reduced the average tumor volume to 10%, 14%, and 18% of the tumor volume obtained in the control on Day 21, respectively. One compound, SBR-11-4483 (60 mg/kg) was administered once per day (via IV route) for a two-week period. By day 19, a reduction of the average tumor volume to 1% was observed.
# [2] = test system: Non-Hodgkin's B cell lymphoma (RL) tumor; experiment: RL tumor growth regression assay, dose dependence; format: in vivo; settings: for weight loss: all mice except one CTX-treated mouse; for effect on tumor volume (in words): three doses
# Experimental: as §1, §2, §3, §4, §5
# The ability of compounds to act in a dose dependent manner was assayed in an RL tumor growth regression assay using compounds SBR-11-2897 and SBR-11-2780.
# [3] = test system: tumor cell line (PC-3) versus normal cell line (CV-1); experiment: Tumor cell selectivity: IC50 normal cell line (CV-1) versus tumor cell line (PC-3); format: cell-based, human (PC-3); monkey (CV-1, transformed monkey kidney cells); settings: CV-1 normal cell line vs PC-3 tumor cell line
# Experimental: The antitumor activity of a cyanoguanidine compound of this invention can be evaluated by MTS colorimetric assay (see Example 149 below). Results obtained by using cell lines of various types of tumors are compared with those obtained by using cell lines of normal cells in this assay. Viability of the cells in each cell line is estimated by measuring the cellular conversion of a tetrazolium salt after incubating the cells in a solution containing a test cyanoguanidine compound in a 96 well plate. IC50 values obtained by using an identical test compound on normal cells and cells of a particular tumor cell line are compared and their ratio (IC50 normal cell /IC50 cancer cell) indicates the cancer selectivity of that test compound. The higher the ratio, the higher the selectivity of the test compound towards that particular type of cancer cell.
# In the secondary screening, IC50 values were determined. Cells were seeded at a low cell density in 96 well flat-bottom plates and incubated for 24 hours at 37° C. in a 7% CO2 atmosphere. […]
# [4] = twice a day IV + IP, 5 days/week, 3 weeks
# [5] = twice a day IV + IP, 5 days/week, 3 weeks, 2780 75, 2889 90, 2897 75, 2900 60 mg/kg
SMILES,"gross toxicity [1, 4]",tumor regression ([1]; 5 days/week),"weight loss [1, 5]",also measured
"N#CN=C(NCc1ccc(NC(=O)C2c3ccccc3-c3ccccc32)cc1)Nc1ccncc1 [SBR-11-2727, 9H-fluorene-9-carboxylic acid (4-(N'-cyano-N""-pyridin-4-yl-guanidinomethyl)-phenyl)-amide]",signs of gross toxicity within the first week,completely regressed all tumors,,
"COc1ccc2cc(C(C)C(=O)Nc3ccc(CNC(=NC#N)Nc4ccncc4)cc3)ccc2c1 (stereo not shown) [SBR-11-2749, 2-(6-Methoxy-naphthalen-2-yl)-N-(4-(N'-cyano-N""-pyridin-4-yl-guanidinomethyl)-phenyl)-propionamide]",,,,"average tumor volume, % of tumor volume obtained in the control ([1]; twice a day IV + IP): 18%"
"N#CN=C(NCc1ccc(NC(=O)c2ccccc2Cc2ccccc2)cc1)Nc1ccncc1 [SBR-11-2750, 2-Benzyl-N-(4-(N'-cyano-N""-pyridin-4-yl-guanidinomethyl)-phenyl)-benzamide]",,,,"average tumor volume, % of tumor volume obtained in the control ([1]; twice a day IV + IP): 14%"
"Cc1c(C)c2c(c(C)c1O)CCC(C)(C(=O)Nc1ccc(CNC(=NC#N)Nc3ccncc3)cc1)O2 (stereo not shown) [SBR-11-2780, 6-Hydroxy-2,5,7,8-tetramethyl-chroman-2-carboxylic acid (4-(N'-cyano-N""-pyridin-4-yl-guanidinomethyl)-phenyl)-amide]",little gross toxicity,completely regressed all tumors,less than 10%,"average tumor volume, % of control group ([2]; 20 mg/kg): 86%; average tumor volume, % of control group ([2]; 40 mg/kg): 24%; average tumor volume, % of control group ([2]; 80 mg/kg): 3%; weight loss [2]: Less than 10%; effect on tumor volume (in words) [2]: dose dependent effect"
"Cc1cc(C)c(S(=O)(=O)Nc2ccc(CNC(=NC#N)Nc3ccncc3)cc2)c(C)c1 [SBR-11-2889, 2,4,6-Trimethyl-N-(4-(N'-cyano-N""-pyridin-4-yl-guanidinomethyl)-phenyl)-benzenesulfonamide]",little gross toxicity,completely regressed all tumors,less than 10%,
"CN(C)c1cccc2c(S(=O)(=O)Nc3ccc(CNC(=NC#N)Nc4ccncc4)cc3)cccc12 [SBR-11-2897, 5-Dimethylamino-naphthalene-1-sulfonic acid (4-(N'-cyano-N""-pyridin-4-yl-guanidinomethyl)-phenyl)-amide]",little gross toxicity,completely regressed all tumors,less than 10%,weight loss [2]: Less than 10%; effect on tumor volume (in words) [2]: almost complete reduction of average tumor volumes
"N#CN=C(NCc1ccc(NS(=O)(=O)c2cccc(C(F)(F)F)c2)cc1)Nc1ccncc1 [SBR-11-2899, N-(4-(N'-Cyano-N""-pyridin-4-yl-guanidinomethyl)-phenyl)-3-trifluoromethyl-benzenesulfonamide]",,,,"average tumor volume, % of tumor volume obtained in the control ([1]; twice a day IV + IP): 10%"
"N#CN=C(NCc1ccc(NS(=O)(=O)c2cccc3ccccc23)cc1)Nc1ccncc1 [SBR-11-2900, Naphthalene-1-sulfonic acid (4-(N'-cyano-N""-pyridin-4-yl-guanidinomethyl)-phenyl)-amide]",little gross toxicity,completely regressed all tumors,less than 10%,
"N#CNC(=Nc1ccncc1)NCCN1CCC(OC(c2ccccc2)c2ccccc2)CC1 [SBR-11-4483, N-[2-(4-Benzhydryloxy-piperidin-1-yl)-ethyl]-N'-cyano-N""-pyridin-4-yl-guanidine]",,,,"weight loss ([1]; 60 mg/kg once per day IV, two weeks): less than 10%; reduction of the average tumor volume to ([1]; by day 19, 60 mg/kg once per day IV, two weeks): 1%"
CC(=O)O[C@H]1C(=O)[C@@]2(C)[C@H]([C@H](OC(=O)c3ccccc3)[C@]3(O)C[C@H](OC(=O)[C@H](O)[C@@H](NC(=O)c4ccccc4)c4ccccc4)C(C)=C1C3(C)C)[C@]1(OC(C)=O)CO[C@@H]1C[C@@H]2O [Taxol],,,,selectivity of tumor cells (IC50 normal cell /IC50 cancer cell) [3]: 20 fold
"O=P1(N(CCCl)CCCl)NCCCO1 (stereo not shown) [cyclophosphamide, Cyclophosphamide, reference compound]",,,,"average tumor volume, % of control ([1]; by Day 18, cyclophosphamide standard): 2%"
